Literature values as cited in PubChem BioAssay AID1259409 (Chemical Carcinogenesis Research Information System (CCRIS), 2018).

Tested on: rodent chemically induced tumor inhibition, incidence and multiplicity
Experiment: CCRIS tumor inhibitor studies
Conditions: Dose [Inhibitor]: 0, Species: RAT, Promoter: NONE USED

Compound: O=C(O)C[CH2][Ge](=[O])[O][Ge](=[O])[CH2]CC(=O)O
- tumour outcome (control, treated, inhibition, significance) (Carcinogen: 1,2-DIMETHYLHYDRAZINE, 540-73-8, 100 MG/KG BW 1/D FOR FIRST 8 WK THEN 1/2 D FOR 19 WK (STUDY DURATION: 27 WK), Route [Inhibitor]: GAVAGE, Strain/Sex: WISTAR/MALE, Target Tissue: Type of Lesion: COLON: TUMOR, Dose [Carcinogen]: 20 MG/KG BW 1/WK FOR 15 WK): 36/36 (100%), 33/35 (94%), 6%, not significant
- tumour outcome (control, treated, inhibition, significance) (Carcinogen: DIETHYLNITROSAMINE, 55-18-5, N-METHYL-N-NITROSOUREA, 684-93-5, N,N-DIBUTYLNITROSAMINE, 924-16-3, Carcinogen: DIETHYLNITROSAMINE, 55-18-5, N-METHYL-N-NITROSOUREA, 684-93-5, N,N-DIBUTYLNITROSAMINE, 924-16-3, 0.05% IN DIET BEGINNING POST CARCINOGEN TREATMENT AND CONTINUING TO WK 40 (STUDY DURATION: 40 WK), Route [Inhibitor]: ORAL, Strain/Sex: F344/MALE, Target Tissue: Type of Lesion: LUNG: ADENOMA, Dose [Carcinogen]: 100 MG/KG DIETHYLNITROSAMINE ONCE FOLLOWED BY 20 MG/KG N-METHYL-N-NITROSOUREA ON D 2, 5, 8 AND 11 THEN 0.05% N-N-DIBUTYL): 9/16 (56%), 1/19 (5%), 91%, p<0.001
- tumour outcome (control, treated, inhibition, significance) (Carcinogen: DIETHYLNITROSAMINE, 55-18-5, N-METHYL-N-NITROSOUREA, 684-93-5, N,N-DIBUTYLNITROSAMINE, 924-16-3, Carcinogen: DIETHYLNITROSAMINE, 55-18-5, N-METHYL-N-NITROSOUREA, 684-93-5, N,N-DIBUTYLNITROSAMINE, 924-16-3, 0.05% IN DIET BEGINNING POST CARCINOGEN TREATMENT AND CONTINUING TO WK 40 (STUDY DURATION: 40 WK), Route [Inhibitor]: ORAL, Strain/Sex: F344/MALE, Target Tissue: Type of Lesion: LUNG: CARCINOMA, Dose [Carcinogen]: 100 MG/KG DIETHYLNITROSAMINE ONCE FOLLOWED BY 20 MG/KG N-METHYL-N-NITROSOUREA ON D 2, 5, 8 AND 11 THEN 0.05% N-N-DIBUTYL): 3/16 (19%), 0/19 (0%), 100%, not calculated
- tumour outcome (control, treated, inhibition, significance) (Carcinogen: DIETHYLNITROSAMINE, 55-18-5, N-METHYL-N-NITROSOUREA, 684-93-5, N,N-DIBUTYLNITROSAMINE, 924-16-3, Carcinogen: DIETHYLNITROSAMINE, 55-18-5, N-METHYL-N-NITROSOUREA, 684-93-5, N,N-DIBUTYLNITROSAMINE, 924-16-3, 0.05% IN DIET BEGINNING POST CARCINOGEN TREATMENT AND CONTINUING TO WK 40 (STUDY DURATION: 40 WK), Route [Inhibitor]: ORAL, Strain/Sex: F344/MALE, Target Tissue: Type of Lesion: THYROID: ADENOMA, Dose [Carcinogen]: 100 MG/KG DIETHYLNITROSAMINE ONCE FOLLOWED BY 20 MG/KG N-METHYL-N-NITROSOUREA ON D 2, 5, 8 AND 11 THEN 0.05% N-N-DIBUTYL): 8/16 (50%), 2/19 (11%), 78%, p<0.02
- tumour outcome (control, treated, inhibition, significance) (Carcinogen: DIETHYLNITROSAMINE, 55-18-5, N-METHYL-N-NITROSOUREA, 684-93-5, N,N-DIBUTYLNITROSAMINE, 924-16-3, Carcinogen: DIETHYLNITROSAMINE, 55-18-5, N-METHYL-N-NITROSOUREA, 684-93-5, N,N-DIBUTYLNITROSAMINE, 924-16-3, 0.05% IN DIET BEGINNING POST CARCINOGEN TREATMENT AND CONTINUING TO WK 40 (STUDY DURATION: 40 WK), Route [Inhibitor]: ORAL, Strain/Sex: F344/MALE, Target Tissue: Type of Lesion: THYROID: CARCINOMA, Dose [Carcinogen]: 100 MG/KG DIETHYLNITROSAMINE ONCE FOLLOWED BY 20 MG/KG N-METHYL-N-NITROSOUREA ON D 2, 5, 8 AND 11 THEN 0.05% N-N-DIBUTYL): 2/16 (13%), 1/19 (5%), 62%, not calculated
- tumour outcome (control, treated, inhibition, significance) (Carcinogen: DIETHYLNITROSAMINE, 55-18-5, N-METHYL-N-NITROSOUREA, 684-93-5, N,N-DIBUTYLNITROSAMINE, 924-16-3, Carcinogen: DIETHYLNITROSAMINE, 55-18-5, N-METHYL-N-NITROSOUREA, 684-93-5, N,N-DIBUTYLNITROSAMINE, 924-16-3, 0.05% IN DIET BEGINNING POST CARCINOGEN TREATMENT AND CONTINUING TO WK 40 (STUDY DURATION: 40 WK), Route [Inhibitor]: ORAL, Strain/Sex: F344/MALE, Target Tissue: Type of Lesion: URINARY BLADDER: CARCINOMA, Dose [Carcinogen]: 100 MG/KG DIETHYLNITROSAMINE ONCE FOLLOWED BY 20 MG/KG N-METHYL-N-NITROSOUREA ON D 2, 5, 8 AND 11 THEN 0.05% N-N-DIBUTYL): 1/16 (6%), 0/19 (0%), 100%, not calculated
- tumour outcome (control, treated, inhibition, significance) (Carcinogen: DIETHYLNITROSAMINE, 55-18-5, N-METHYL-N-NITROSOUREA, 684-93-5 N,N-DIBUTYLNITROSAMINE, 924-16-3, Carcinogen: DIETHYLNITROSAMINE, 55-18-5, N-METHYL-N-NITROSOUREA, 684-93-5 N,N-DIBUTYLNITROSAMINE, 924-16-3, 0.05% IN DIET BEGINNING POST CARCINOGEN TREATMENT AND CONTINUING TO WK 40 (STUDY DURATION: 40 WK), Route [Inhibitor]: ORAL, Strain/Sex: F344/MALE, Target Tissue: Type of Lesion: URINARY BLADDER: PAPILLOMA, Dose [Carcinogen]: 100 MG/KG DIETHYLNITROSAMINE ONCE FOLLOWED BY 20 MG/KG N-METHYL-N-NITROSOUREA ON D 2, 5, 8 AND 11 THEN 0.05% N-N-DIBUTYL): 4/16 (25%), 1/19 (5%), 80%, not calculated
